Test results: EP2119770B1, “Production of alpha-oxyfunctionalized carbonyl compounds” (priority 2008, dated 2009)

Key:
Format in all cases: biochemical
Gox0502 = biological target: T1, Gox0502 (Gluconobacter oxydans, UniProt Q5FTL6); assay: Enzyme activity assay (rate of NAD(P)H decrease at 340 nm), Gox0502; set-up: Strep-tag II (N); made in house; host or cells: E. coli BL21 or E. coli DH5α (pASK-IBA5); settings: 10 mM substrate; for Specific Activity: Tab. 7, Gox0502, cofactor NADPH, pH 7.0, 30 °C; for Activity: Table 3, Gox0502, K-phosphate buffer pH 7.0, 0.05 mM NAD(P)H, 30 °C
T1 sequence (Q5FTL6 1-361): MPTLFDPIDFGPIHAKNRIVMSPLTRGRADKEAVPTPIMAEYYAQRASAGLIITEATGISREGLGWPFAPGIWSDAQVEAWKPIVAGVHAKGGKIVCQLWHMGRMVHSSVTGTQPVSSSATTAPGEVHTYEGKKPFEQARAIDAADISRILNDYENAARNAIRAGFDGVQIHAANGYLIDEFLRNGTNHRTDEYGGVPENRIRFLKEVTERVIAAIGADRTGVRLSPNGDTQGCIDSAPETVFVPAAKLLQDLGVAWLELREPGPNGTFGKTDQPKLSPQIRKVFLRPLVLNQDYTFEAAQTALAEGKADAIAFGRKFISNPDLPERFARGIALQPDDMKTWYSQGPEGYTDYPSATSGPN
Method in brief: (§1)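 Purified enzymes assayed at 30 °C in 40 mM potassium phosphate pH 7.0 with 10 mM substrate and NAD(P)H (0.025 mM, or 0.05 mM in the standard mixture), started by adding enzyme or substrate. Activity followed as the rate of NAD(P)H decrease at 340 nm; one unit = 1 µmol pyridine nucleotide converted per min; protein measured by Bradford.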

Gox0313 = biological target: T2, Gox0313 (Gluconobacter oxydans, UniProt Q5FU50); assay: Enzyme activity assay (rate of NAD(P)H decrease at 340 nm), Gox0313; settings: 10 mM substrate; for Specific Activity: Tab. 6, Gox0313, substrate reduction, cofactor NADH, pH 7.0, 30 °C; for Activity: Table 3, Gox0313, K-phosphate buffer pH 7.0, 0.05 mM NAD(P)H, 30 °C
T2 sequence (Q5FU50 1-343): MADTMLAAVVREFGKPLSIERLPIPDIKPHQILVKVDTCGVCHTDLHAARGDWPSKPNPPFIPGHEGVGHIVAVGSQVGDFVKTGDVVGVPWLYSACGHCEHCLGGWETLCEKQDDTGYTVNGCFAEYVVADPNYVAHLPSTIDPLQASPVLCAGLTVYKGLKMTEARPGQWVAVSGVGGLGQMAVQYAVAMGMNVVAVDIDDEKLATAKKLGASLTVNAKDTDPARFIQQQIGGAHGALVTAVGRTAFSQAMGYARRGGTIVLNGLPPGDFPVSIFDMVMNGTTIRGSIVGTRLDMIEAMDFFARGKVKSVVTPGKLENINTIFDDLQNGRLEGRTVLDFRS
Method in brief: as §1

Gox0644 = Gox0644 (Gluconobacter oxydans, UniProt Q5FT75); assay: Enzyme activity assay (rate of NAD(P)H decrease at 340 nm), Gox0644; settings: 10 mM substrate; for Specific Activity: Tab. 4, Gox0644, cofactor NADPH, pH 7.0, 30 °C; for Activity: Table 3, Gox0644, K-phosphate buffer pH 7.0, 0.05 mM NAD(P)H, 30 °C
Experimental: (§2) Reactions were induced by addition of enzyme or substrate. One unit of enzyme activity was defined as the amount of enzyme catalyzing the conversion of 1 µmol of pyridine nucleotide per min at 30 °C.
as §2
For each enzyme (Gox0313, Gox0502, Gox0644, Gox0646, Gox1615, Gox2107, and Gox2684 respectively), fresh enzyme preparations were used to validate the substrate spectrum and the kinetic activity. […] Reactions were induced by addition of enzyme or substrate. One unit of enzyme activity was defined as the amount of enzyme catalyzing the conversion of 1 µmol of pyridine nucleotide per min at 30 °C. […] Table 3: Summary of enzymatic activities with α-diketones, α-ketoaldehydes and /or α-ketoesters

Gox2107 = Gox2107 (Gluconobacter oxydans, UniProt Q5FP53); assay: Enzyme activity assay (rate of NAD(P)H decrease at 340 nm), Gox2107; settings: 10 mM substrate; for Specific Activity: Tab. 7, Gox2107, cofactor NADPH, pH 7.0, 30 °C
Method in brief: as §1

| Structure (SMILES) | Specific Activity (Gox0502) | Specific Activity (Gox0313) | Activity (Gox0313) | Specific Activity (Gox0644) | Activity (Gox0644) | Specific Activity (Gox2107) | Activity (Gox0502) | Activity (Gox2107; Table 3, Gox2107, K-phosphate buffer pH 7.0, 0.05 mM NAD(P)H, 30 °C) |
| --- | --- | --- | --- | --- | --- | --- | --- | --- |
| CCCC(=O)C(C)=O [2,3-hexanedione] | 1.0 U/mg | 19.6 U/mg | 19.6 U/mg | 50.1 U/mg | 50.1 U/mg | < 0.1 U/mg |  |  |
| CCC(=O)C(C)=O [2,3-pentanedione] |  | 35.9 U/mg | 35.9 U/mg | 89.3 U/mg | 89.3 U/mg |  |  |  |
| CCC(=O)C(=O)CC [3,4-hexanedione] | 2,0 U/mg | 19.5 U/mg | 19.5 U/mg | 7.3 U/mg | 7.3 U/mg | < 0.1 U/mg | 2.0 U/mg |  |
| CC(=O)C=O [methylglyoxal] | 1.5 U/mg | 10.6 U/mg | 10.6 U/mg | 3.4 U/mg | 3.4 U/mg | < 0.1 U/mg |  |  |
| O=CC(=O)c1ccccc1 [phenylglyoxal] | 15.7 U/mg | 0.5 U/mg | 0.5 U/mg | 66.0 U/mg | 66.0 U/mg | 35.2 U/mg | 15.7 U/mg | 35.2 U/mg |
